These results are taken from patent US12252524B2, “GIP/GLP1 co-agonist compounds” (Eli Lilly and Company, priority 2018, dated 2025).

In test [1] the target is T1, gastric inhibitory peptide receptor (GIPR) (Homo sapiens, UniProt P48546).
T1 sequence (P48546 22-466): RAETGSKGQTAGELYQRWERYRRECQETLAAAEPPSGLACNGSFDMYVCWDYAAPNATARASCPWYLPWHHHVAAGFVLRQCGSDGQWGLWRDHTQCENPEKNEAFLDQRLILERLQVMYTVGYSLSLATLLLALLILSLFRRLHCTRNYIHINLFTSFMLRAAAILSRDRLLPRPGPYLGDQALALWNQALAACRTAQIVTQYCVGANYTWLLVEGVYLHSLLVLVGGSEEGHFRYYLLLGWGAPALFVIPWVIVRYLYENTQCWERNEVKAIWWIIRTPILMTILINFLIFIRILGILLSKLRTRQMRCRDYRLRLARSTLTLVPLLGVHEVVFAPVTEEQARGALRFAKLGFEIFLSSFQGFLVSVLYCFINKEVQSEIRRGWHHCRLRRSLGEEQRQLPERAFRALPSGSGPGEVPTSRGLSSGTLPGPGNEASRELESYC
The test is described as follows: cAMP pharmacological functional assay in presence of casein, hGIPR. Type of test: cell-based. To be noted: HEK293 cells expressing hGIPR, 0.1% Casein, geometric mean; read-out: hGIPR cAMP Rel EC50 nM (SEM, n).

In the next test the target is T2, human Gcg receptor (Homo sapiens, UniProt P47871).
T2 construct: expressed in transfected cells; crude membranes
The test is described as follows: [125I]-Glucagon binding (SPA), human Gcg receptor. The settings on record: read-out: hGLcgR Ki, nM (SEM, n). Summed up:
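Cell pellets were lysed in hypotonic Tris buffer, pH 7.5, homogenized, and spun at low then high speed to give crude membranes. Ki was derived from the fitted IC50.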

Test [2] has as its target human GLP-1 receptor (GLP-1R) (Homo sapiens, UniProt P43220). The test is described as follows: cAMP pharmacological functional assay in presence of casein, hGLP-1R. Type of test: cell-based. To be noted: HEK293 cells expressing hGLP-1R, 0.1% Casein, geometric mean; read-out: hGLP1R cAMP Rel EC50 nM (SEM, n).
The target in another test is T3, human GIP receptor (Homo sapiens, UniProt P48546).
T3 construct: expressed in transfected cells; crude membranes
T3 sequence (P48546 22-466): T1 sequence (P48546 22-466)
Put plainly: [125I]-GIP binding (SPA), human GIP receptor. To be noted: read-out: hGIPR Ki, nM (SEM, n).

A further test concerns the target human GLP-1R (Homo sapiens, UniProt P43220). Put plainly: [125I]-GLP-1 binding (SPA), human GLP-1 receptor. Also on record: expressed in transfected cells; crude membranes. To be noted: read-out: hGLP1R Ki, (nM) (SEM, n). Summed up: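 Membranes: hypotonic lysis (50 mM Tris HCl, pH 7.5, protease inhibitors), Potter-Elvehjem homogenization, high-speed pellet (35000×g 1 h or 25000×g 30 min, 4° C.). Buffer: 25 mM HEPES pH 7.4, 2.5 mM CaCl2, 1 mM MgCl2. Four-parameter IC50 fit; Ki as geometric mean ± SEM.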

Numbered stars: 1 amine (or outer) side, 2 acyl side, 3 side chain; on linkers, the order of the positions; unused ones are H or OH. Square brackets hold non-standard residues; d marks the D form. Side chains are listed from the residue outwards. Peptide text beside a SMILES is read from it. * marks the point of attachment. C20 diacid = O=C(O)CCCCCCCCCCCCCCCCCCC(=O)*; γGlu = O=C(O)[C@H](CCC(=O)[*:2])N[*:1]; AEEA = NCCOCCOCC(=O)O; Aib = CC(C)(N)C(=O)O Bounds are passed on as bounds.

Sequence of human GLP-1R (P43220 24-463): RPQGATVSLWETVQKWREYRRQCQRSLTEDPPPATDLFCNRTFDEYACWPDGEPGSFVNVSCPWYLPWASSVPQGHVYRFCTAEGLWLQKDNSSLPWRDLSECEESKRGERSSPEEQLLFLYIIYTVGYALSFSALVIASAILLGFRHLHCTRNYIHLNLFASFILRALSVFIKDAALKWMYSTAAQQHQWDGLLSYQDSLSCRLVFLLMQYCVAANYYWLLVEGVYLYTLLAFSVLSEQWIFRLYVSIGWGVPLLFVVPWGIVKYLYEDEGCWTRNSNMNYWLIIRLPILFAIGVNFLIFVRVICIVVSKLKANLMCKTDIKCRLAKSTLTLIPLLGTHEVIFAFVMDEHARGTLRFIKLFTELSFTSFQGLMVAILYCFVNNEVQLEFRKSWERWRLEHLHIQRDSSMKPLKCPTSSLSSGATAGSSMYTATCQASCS
Sequence of human GLP-1 receptor (GLP-1R) (P43220 24-463): as above
T2 sequence (P47871 26-477): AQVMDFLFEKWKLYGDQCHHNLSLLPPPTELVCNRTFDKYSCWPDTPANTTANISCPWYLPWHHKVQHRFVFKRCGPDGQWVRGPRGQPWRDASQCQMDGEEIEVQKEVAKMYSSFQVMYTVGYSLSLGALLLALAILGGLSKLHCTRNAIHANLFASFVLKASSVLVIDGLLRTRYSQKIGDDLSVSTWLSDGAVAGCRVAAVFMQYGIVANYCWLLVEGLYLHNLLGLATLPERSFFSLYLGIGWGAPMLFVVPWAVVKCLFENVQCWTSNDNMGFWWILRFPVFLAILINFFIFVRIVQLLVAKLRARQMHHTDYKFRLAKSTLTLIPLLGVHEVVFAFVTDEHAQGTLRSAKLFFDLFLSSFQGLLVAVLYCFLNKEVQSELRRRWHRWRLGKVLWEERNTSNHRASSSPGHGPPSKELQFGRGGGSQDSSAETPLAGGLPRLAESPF

As a reminder, the EC50 is the concentration needed to bring the measured effect to its halfway point. As a reminder, the Ki is the equilibrium dissociation constant of an inhibitor or competing ligand from its target. As to `CC[C@H](C)[C@H](NC(=O)[C@H](CC(C)C)NC(=O)[C@H](Cc1ccc(O)cc1)NC(=O)[C@H](CCC(=O)O)NC(=O)[C@@H](NC(=O)[C@H](Cc1ccccc1)NC(=O)[C@H](C)NC(=O)[C@H](CCCCNC(=O)COCCOCCNC(=O)COCCOCCNC(=O)CC[C@H](NC(=O)CCCCCCCCCCCCCCCCCCC(=O)O)C(=O)O)NC(=O)[C@H](CCC(N)=O)NC(=O)[C@H](C)NC(=O)[C@@H](NC(=O)C(C)(C)NC(=O)[C@H](CC(=O)O)NC(=O)[C@H](CC(C)C)NC(=O)[C@H](CC(C)C)NC(=O)[C@@H](NC(=O)[C@H](CO)NC(=O)[C@H](Cc1ccc(O)cc1)NC(=O)[C@H](CC(=O)O)NC(=O)[C@H](CO)NC(=O)[C@@H](NC(=O)[C@H](Cc1ccccc1)NC(=O)[C@@H](NC(=O)CNC(=O)[C@H](CCC(=O)O)NC(=O)C(C)(C)NC(=O)[C@@H](N)Cc1ccc(O)cc1)[C@@H](C)O)[C@@H](C)O)[C@@H](C)CC)[C@@H](C)CC)[C@@H](C)CC)C(=O)N[C@@H](CCC(=O)O)C(=O)NCC(=O)NCC(=O)N1CCC[C@H]1C(=O)N[C@@H](CO)C(=O)N[C@@H](CO)C(=O)NCC(=O)N[C@@H](C)C(=O)N1CCC[C@H]1C(=O)N1CCC[C@H]1C(=O)N1CCC[C@H]1C(=O)N[C@@H](CO)C(N)=O` [Example 13] (H-Y[Aib]EGTFTSDYSILLD[Aib]IAQK([AEEA-AEEA-γGlu-C20 diacid])AFIEYLIEGGPSSGAPPPS-NH2), the concentration for a half-maximal effect (EC50) in test [1] came to 1.05 nM; in test [2], 5.39 nM. Further, the results for the inhibitory constant (Ki) on human Gcg receptor, at human GIP receptor and on human GLP-1R were more than 1060 nM, 0.296 nM and 31.1 nM, respectively.
For `CC[C@H](C)[C@H](NC(=O)[C@H](CCCCN)NC(=O)[C@H](CC(=O)O)NC(=O)[C@H](CC(C)C)NC(=O)[C@H](CC(C)C)NC(=O)[C@@H](NC(=O)[C@H](CO)NC(=O)[C@H](Cc1ccc(O)cc1)NC(=O)[C@H](CC(=O)O)NC(=O)[C@H](CO)NC(=O)[C@@H](NC(=O)[C@H](Cc1ccccc1)NC(=O)[C@@H](NC(=O)CNC(=O)[C@H](CCC(=O)O)NC(=O)C(C)(C)NC(=O)[C@@H](N)Cc1ccc(O)cc1)[C@@H](C)O)[C@@H](C)O)[C@@H](C)CC)C(=O)N[C@@H](C)C(=O)N[C@@H](CCC(N)=O)C(=O)N[C@@H](CCCCNC(=O)COCCOCCNC(=O)COCCOCCNC(=O)CC[C@H](NC(=O)CCCCCCCCCCCCCCCCCCC(=O)O)C(=O)O)C(=O)N[C@@H](CCC(=O)O)C(=O)N[C@@H](Cc1ccccc1)C(=O)N[C@H](C(=O)N[C@@H](CCC(N)=O)C(=O)N[C@@H](Cc1ccc(O)cc1)C(=O)N[C@@H](CC(C)C)C(=O)N[C@@H](CC(C)C)C(=O)N[C@@H](CCC(=O)O)C(=O)NC(C)(C)C(=O)NCC(=O)N1CCC[C@H]1C(=O)N[C@@H](CO)C(=O)N[C@@H](CO)C(=O)NCC(=O)N[C@@H](C)C(=O)N1CCC[C@H]1C(=O)N1CCC[C@H]1C(=O)N1CCC[C@H]1C(=O)N[C@@H](CO)C(N)=O)[C@@H](C)CC` [Example 14] (H-Y[Aib]EGTFTSDYSILLDKIAQK([AEEA-AEEA-γGlu-C20 diacid])EFIQYLLE[Aib]GPSSGAPPPS-NH2; N-terminus assumed), the half-maximal effective concentration (EC50) in test [1] is 0.284 nM; in test [2] it was 1.87 nM. Moreover, the Ki stood at 160 nM on human Gcg receptor, 0.0494 nM at human GIP receptor and 29.6 nM on human GLP-1R.
Consider `CC[C@H](C)[C@H](NC(=O)[C@H](Cc1ccccc1)NC(=O)[C@H](C)NC(=O)C(C)(C)NC(=O)[C@H](CCC(N)=O)NC(=O)[C@H](C)NC(=O)[C@H](CCCCNC(=O)COCCOCCNC(=O)COCCOCCNC(=O)CC[C@H](NC(=O)CCCCCCCCCCCCCCCCCCC(=O)O)C(=O)O)NC(=O)[C@H](CCCCN)NC(=O)[C@H](CC(=O)O)NC(=O)[C@H](CC(C)C)NC(=O)[C@H](CC(C)C)NC(=O)[C@@H](NC(=O)[C@H](CO)NC(=O)[C@H](Cc1ccc(O)cc1)NC(=O)[C@H](CC(=O)O)NC(=O)[C@H](CO)NC(=O)[C@@H](NC(=O)[C@H](Cc1ccccc1)NC(=O)[C@@H](NC(=O)CNC(=O)[C@H](CCC(=O)O)NC(=O)C(C)(C)NC(=O)[C@@H](N)Cc1c[nH]cn1)[C@@H](C)O)[C@@H](C)O)[C@@H](C)CC)C(=O)N[C@@H](CCC(=O)O)C(=O)N[C@@H](Cc1ccc(O)cc1)C(=O)N[C@@H](CC(C)C)C(=O)N[C@@H](CC(C)C)C(=O)N[C@@H](CCC(=O)O)C(=O)NC(C)(C)C(=O)NCC(=O)N1CCC[C@H]1C(=O)N[C@@H](CO)C(=O)N[C@@H](CO)C(=O)NCC(=O)N[C@@H](C)C(=O)N1CCC[C@H]1C(=O)N1CCC[C@H]1C(=O)N1CCC[C@H]1C(=O)N[C@@H](CO)C(N)=O` [Example 15] (H-H[Aib]EGTFTSDYSILLDKK([AEEA-AEEA-γGlu-C20 diacid])AQ[Aib]AFIEYLLE[Aib]GPSSGAPPPS-NH2), for which the figures for the EC50 in test [1] and in test [2] were 0.613 nM and 0.0336 nM, respectively. The inhibitory constant (Ki) on human Gcg receptor turned out to be 130 nM; at human GIP receptor, 0.284 nM; at human GLP-1R, 2.19 nM.
As to `CC[C@H](C)[C@H](NC(=O)[C@H](Cc1ccccc1)NC(=O)[C@H](C)NC(=O)C(C)(C)NC(=O)[C@H](CCC(N)=O)NC(=O)[C@H](C)NC(=O)[C@H](CCCCNC(=O)COCCOCCNC(=O)COCCOCCNC(=O)CC[C@H](NC(=O)CCCCCCCCCCCCCCCCCCC(=O)O)C(=O)O)NC(=O)[C@H](CCCCN)NC(=O)[C@H](CC(=O)O)NC(=O)[C@H](CC(C)C)NC(=O)[C@H](CC(C)C)NC(=O)[C@@H](NC(=O)[C@H](CO)NC(=O)[C@H](Cc1ccc(O)cc1)NC(=O)[C@H](CC(=O)O)NC(=O)[C@H](CO)NC(=O)[C@@H](NC(=O)[C@H](Cc1ccccc1)NC(=O)[C@@H](NC(=O)CNC(=O)[C@H](CCC(=O)O)NC(=O)C(C)(C)NC(=O)[C@@H](N)Cc1c[nH]cn1)[C@@H](C)O)[C@@H](C)O)[C@@H](C)CC)C(=O)N[C@@H](CCC(=O)O)C(=O)N[C@@H](Cc1ccc(O)cc1)C(=O)N[C@@H](CC(C)C)C(=O)N[C@H](C(=O)N[C@@H](CCC(=O)O)C(=O)NC(C)(C)C(=O)NCC(=O)N1CCC[C@H]1C(=O)N[C@@H](CO)C(=O)N[C@@H](CO)C(=O)NCC(=O)N[C@@H](C)C(=O)N1CCC[C@H]1C(=O)N1CCC[C@H]1C(=O)N1CCC[C@H]1C(=O)N[C@@H](CO)C(N)=O)[C@@H](C)CC` [Example 16] (H-H[Aib]EGTFTSDYSILLDKK([AEEA-AEEA-γGlu-C20 diacid])AQ[Aib]AFIEYLIE[Aib]GPSSGAPPPS-NH2), the EC50 in test [1] was determined as 0.975 nM; in test [2], 0.0437 nM. Also, the inhibition constant Ki on human Gcg receptor is 371 nM; at human GIP receptor it was 0.0841 nM; on human GLP-1R, 2.78 nM.
In the case of `CC[C@H](C)[C@H](NC(=O)[C@H](CCCCN)NC(=O)[C@H](CC(=O)O)NC(=O)[C@H](CC(C)C)NC(=O)[C@H](CC(C)C)NC(=O)[C@@H](NC(=O)[C@H](CO)NC(=O)[C@H](Cc1ccc(O)cc1)NC(=O)[C@H](CC(=O)O)NC(=O)[C@H](CO)NC(=O)[C@@H](NC(=O)[C@H](Cc1ccccc1)NC(=O)[C@@H](NC(=O)CNC(=O)[C@H](CCC(=O)O)NC(=O)C(C)(C)NC(=O)[C@@H](N)Cc1c[nH]cn1)[C@@H](C)O)[C@@H](C)O)[C@@H](C)CC)C(=O)N[C@@H](C)C(=O)N[C@@H](CCC(N)=O)C(=O)N[C@@H](CCCCNC(=O)COCCOCCNC(=O)COCCOCCNC(=O)CC[C@H](NC(=O)CCCCCCCCCCCCCCCCCCC(=O)O)C(=O)O)C(=O)N[C@@H](C)C(=O)N[C@@H](Cc1ccccc1)C(=O)N[C@H](C(=O)N[C@@H](CCC(=O)O)C(=O)N[C@@H](Cc1ccc(O)cc1)C(=O)N[C@@H](CC(C)C)C(=O)N[C@@H](CC(C)C)C(=O)N[C@@H](CCC(=O)O)C(=O)NC(C)(C)C(=O)NCC(=O)N1CCC[C@H]1C(=O)N[C@@H](CO)C(=O)N[C@@H](CO)C(=O)NCC(N)=O)[C@@H](C)CC` [Example 17] (H-H[Aib]EGTFTSDYSILLDKIAQK([AEEA-AEEA-γGlu-C20 diacid])AFIEYLLE[Aib]GPSSG-NH2; N-terminus assumed), the concentration for a half-maximal effect (EC50) amounted to 5.81 nM in test [1] and 0.152 nM in test [2]. Moreover, the figures for the Ki at human Gcg receptor, on human GIP receptor and at human GLP-1R were 261 nM, 0.606 nM and 7.63 nM, respectively.
